# Laboratory results: patent US20220288051A1, “METHODS FOR TREATING CANCER USING SERIAL ADMINISTRATION OF E3 UBIQUITIN LIGASE DEGRADERS” (Dana-Farber Cancer Institute, Inc., priority 2019, published 2022)
# What was measured:
# MM.1S-dCas9-VP64 cells = test: Genome-scale CRISPR gene activation resistance screens; type: cell-based, human; settings: Calabrese library; successive rounds of treatment
# Description: We also performed genome-scale CRISPR-based gene-activation screens, which followed the “long-term” configuration of the gene editing studies.
# For the genome-scale screen with the Calabrese sgRNA library, tumor cells were transduced in batches of 3×10^7 cells per sublibrary for triplicates. Cells were incubated (18 h) in cell medium containing polybrene (4 μg/mL; Santa Cruz Biotechnology), 10 mM HEPES (pH 7.4) (Sigma-Aldrich) and viral prep (30 mL) diluted 1:1. Transduced cells were cultured at an initial density of 1×10^6 cells/mL and were treated with puromycin (1 μg/mL) for up to 7 days additional two days from transduction. After stable transduction, pooled MM.1S cells were plated at 30×10^6 cells per flask (T175, 100 mL) to enable coverage of 500× and were sub-cultured at three- to four-day intervals to prevent confluence. […]
# Cells were immediately harvested (30×10^6) and sgRNA distribution assessed, by next generation sequencing.
# iv. […] DNA concentration was quantified by UV-spectroscopy (NanoDrop 8000; ThermoFisher Scientific). […] Multiplexed samples were then sequenced at the Molecular Biology Core Facility (Dana-Farber Cancer Institute) and/or The Genomics Platform (Broad Institute) using an Illumina NextSeq 500 (Illumina, San Diego, Calif.), allowing […] individual reads per multiplexed sample.
# pools of MM cells = test: Sequential exposure to CRBN- and VHL-based degraders, CTG; type: cell-based, human; settings: compared to treatment-naïve cells
# Source text: We addressed this question using pools of MM cells derived from several of our genome-scale CRISPR-based screens.
# MDR1 transporter = MDR1 transporter (Homo sapiens, UniProt P08183); settings: stated as fact; cited from earlier work
# MM.1S-Cas9+ cells = test: Genome-scale CRISPR/Cas9 gene editing (LOF) resistance screens; type: cell-based, human; settings: 25 nM for 48 hrs; Brunello library
# BRD3 = molecular target: T1, BRD3 (Homo sapiens, UniProt Q15059); test: Immunoblotting of degronimid-treated MM.1S cells: BRD3; type: cell-based; settings: 0.01-1 μM, 4 h
# T1 construct: endogenous in cells; host or cells: MM.1S
# Description: (§1) MM.1S cells were seeded in 6-well plates at 3×10^6 cells/well (˜24 h prior to addition of drug). […] Cell pellets were thawed on ice, lysed using RIPA buffer (ThermoFisher) with protease/phosphatase inhibitor cocktail (Cell Signal Technology, Danvers, Mass.) by incubating on ice 30 min. The lysates were clarified by spinning at 10,000 g for 10 min at 4° C. and the concentration of the lysate was determined using BCA protocol (ThermoFisher). Samples were prepared for Western blot using LDS sample buffer (NuPage, Invitrogen, Carlsbad, Calif., USA) with sample reducing agent (NuPage, Invitrogen) and heated to 95° C. for 5 min. Samples were loaded (20 ug/sample) into Tris-acetate or Bis-Tris gels (NuPage, Invitrogen) and run as per kit instructions using appropriate running buffers. Gels were transferred as described (Matthews et al., 2015) onto PVDF membrane using SDS-based transfer buffer (NuPage, Invitrogen). Membranes were blocked (5% skim milk; or 5% bovine serum albumin in TBS-T) for at least 30 min then probed with primary antibodies overnight (4° C.). […] Each protein of interest (BRD2, BRD3, BRD4, c-myc and CDK9) was assessed in a separate gel and corresponding membrane (which was simultaneously incubated with antibodies for both the target protein of interest and GAPDH, to provide a loading control within the same blot). […]
# BRD2 = molecular target: T2, BRD2 (Homo sapiens, UniProt P25440); test: Immunoblotting of degronimid-treated MM.1S cells: BRD2; type: cell-based; settings: 0.01-1 μM, 4 h
# T2 construct: endogenous in cells; host or cells: MM.1S
# Description: as §1
# human MM.1S cells = test: Xenograft model of diffuse MM lesions; type: in vivo, NSG mice; settings: 20 mg/kg, QD, 12 days
# Description: ii. Xenograft model of diffuse MM lesions: Luciferase-positive MM.1S cells (1×106 Luc-GFP-MM.1S) were injected via the tail vein (IV) into NSG mice. […] BLI was undertaken weekly and mice were euthanized when moribund or upon signs of hind-limb paralysis.
# [1] = tested on: OPM1, OCI-MY5, KMS11 and OPM2 (shRNAs against CRBN); test: CTG viability of MM cell lines with low CRBN levels; type: cell-based, human; settings: low but detectable CRBN, constitutive or shRNA
# Source text: Human MM cell lines KMS11 and OPM-2 expressing non-targeting control shRNAs or shRNA.
# Chain of MDR1 transporter (P08183 whole entry): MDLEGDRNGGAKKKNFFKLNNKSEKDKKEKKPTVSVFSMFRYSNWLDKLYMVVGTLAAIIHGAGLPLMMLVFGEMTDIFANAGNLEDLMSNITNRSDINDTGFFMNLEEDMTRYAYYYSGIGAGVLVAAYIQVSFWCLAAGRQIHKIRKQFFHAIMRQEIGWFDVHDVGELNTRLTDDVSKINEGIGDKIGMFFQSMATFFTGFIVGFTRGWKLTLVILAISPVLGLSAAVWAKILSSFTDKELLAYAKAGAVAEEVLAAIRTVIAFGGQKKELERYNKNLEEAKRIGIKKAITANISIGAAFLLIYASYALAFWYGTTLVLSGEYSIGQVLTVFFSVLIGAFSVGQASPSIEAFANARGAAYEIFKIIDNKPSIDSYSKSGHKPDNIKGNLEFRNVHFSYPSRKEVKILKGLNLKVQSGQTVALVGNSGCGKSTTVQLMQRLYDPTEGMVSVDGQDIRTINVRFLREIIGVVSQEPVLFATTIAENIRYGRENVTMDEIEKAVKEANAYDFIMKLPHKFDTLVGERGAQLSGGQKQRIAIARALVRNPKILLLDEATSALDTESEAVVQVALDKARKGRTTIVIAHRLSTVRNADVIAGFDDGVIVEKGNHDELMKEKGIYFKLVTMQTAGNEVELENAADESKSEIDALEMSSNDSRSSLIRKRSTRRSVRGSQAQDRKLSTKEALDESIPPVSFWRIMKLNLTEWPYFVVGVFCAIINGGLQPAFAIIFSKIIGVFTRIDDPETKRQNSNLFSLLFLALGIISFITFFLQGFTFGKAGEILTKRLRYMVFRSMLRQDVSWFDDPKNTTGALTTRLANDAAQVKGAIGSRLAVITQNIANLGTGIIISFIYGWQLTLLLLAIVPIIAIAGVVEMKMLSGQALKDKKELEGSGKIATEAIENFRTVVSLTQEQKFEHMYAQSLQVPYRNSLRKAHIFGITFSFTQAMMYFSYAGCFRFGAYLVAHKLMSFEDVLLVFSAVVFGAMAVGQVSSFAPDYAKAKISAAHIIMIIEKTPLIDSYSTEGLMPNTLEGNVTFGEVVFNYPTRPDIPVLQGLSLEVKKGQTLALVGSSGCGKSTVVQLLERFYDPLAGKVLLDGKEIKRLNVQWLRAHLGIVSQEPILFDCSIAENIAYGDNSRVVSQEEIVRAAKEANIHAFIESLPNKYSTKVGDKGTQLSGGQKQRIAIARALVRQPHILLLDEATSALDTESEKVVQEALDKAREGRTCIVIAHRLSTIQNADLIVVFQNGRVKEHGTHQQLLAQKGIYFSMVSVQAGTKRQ
# T2 sequence (P25440 whole entry): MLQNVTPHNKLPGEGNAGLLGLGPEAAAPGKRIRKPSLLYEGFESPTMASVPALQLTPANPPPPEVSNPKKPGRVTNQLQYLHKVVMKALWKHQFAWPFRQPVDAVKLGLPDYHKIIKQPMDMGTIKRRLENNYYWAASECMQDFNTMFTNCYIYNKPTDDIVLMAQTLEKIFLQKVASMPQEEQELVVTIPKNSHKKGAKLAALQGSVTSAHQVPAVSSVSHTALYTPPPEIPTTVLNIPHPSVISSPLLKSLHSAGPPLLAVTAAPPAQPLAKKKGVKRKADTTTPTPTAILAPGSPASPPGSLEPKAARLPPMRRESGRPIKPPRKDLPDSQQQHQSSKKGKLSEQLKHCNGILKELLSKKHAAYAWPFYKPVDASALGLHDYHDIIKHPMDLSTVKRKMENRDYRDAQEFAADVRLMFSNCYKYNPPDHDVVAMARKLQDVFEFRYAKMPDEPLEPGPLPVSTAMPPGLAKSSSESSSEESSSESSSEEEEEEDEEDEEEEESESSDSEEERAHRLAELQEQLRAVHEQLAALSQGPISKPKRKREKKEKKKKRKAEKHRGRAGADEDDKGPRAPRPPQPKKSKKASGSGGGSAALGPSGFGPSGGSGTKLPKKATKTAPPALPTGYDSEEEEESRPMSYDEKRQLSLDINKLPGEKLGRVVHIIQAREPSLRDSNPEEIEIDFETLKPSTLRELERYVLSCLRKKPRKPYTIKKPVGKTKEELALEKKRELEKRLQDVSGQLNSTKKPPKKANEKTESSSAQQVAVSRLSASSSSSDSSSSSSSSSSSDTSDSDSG
# T1 sequence (Q15059 whole entry): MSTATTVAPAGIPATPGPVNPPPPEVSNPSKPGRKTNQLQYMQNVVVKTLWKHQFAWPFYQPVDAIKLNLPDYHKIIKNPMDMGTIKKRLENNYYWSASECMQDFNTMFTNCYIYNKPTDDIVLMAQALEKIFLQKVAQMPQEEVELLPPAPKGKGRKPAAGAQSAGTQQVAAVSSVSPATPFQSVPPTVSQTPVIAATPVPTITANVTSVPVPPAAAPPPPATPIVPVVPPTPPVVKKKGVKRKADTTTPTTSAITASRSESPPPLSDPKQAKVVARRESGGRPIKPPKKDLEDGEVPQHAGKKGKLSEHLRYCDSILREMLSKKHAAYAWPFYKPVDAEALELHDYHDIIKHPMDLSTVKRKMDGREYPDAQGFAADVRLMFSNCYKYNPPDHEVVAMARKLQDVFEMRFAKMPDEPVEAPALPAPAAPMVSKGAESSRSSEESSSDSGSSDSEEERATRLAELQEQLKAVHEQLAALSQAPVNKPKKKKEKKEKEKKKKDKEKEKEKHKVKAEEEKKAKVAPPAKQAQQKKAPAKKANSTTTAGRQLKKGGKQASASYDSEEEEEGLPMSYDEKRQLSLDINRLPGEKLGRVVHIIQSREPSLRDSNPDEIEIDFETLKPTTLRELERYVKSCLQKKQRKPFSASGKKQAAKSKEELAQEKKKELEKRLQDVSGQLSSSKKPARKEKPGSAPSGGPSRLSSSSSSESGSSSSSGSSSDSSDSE
SMILES,"sgRNA enrichment, gene activation screen (MM.1S-dCas9-VP64 cells)",response of pools previously exposed to ARV771 and then MZ1 (pools of MM cells),shift of dose response curve in pools previously exposed to CRBN-based degraders (pools of MM cells),MDR1 substrate (MDR1 transporter),"sgRNA enrichment, short-term screen (MM.1S-Cas9+ cells)",BRD3 protein levels (BRD3),BRD2 protein levels (BRD2),overall survival (human MM.1S cells),tumor burden measured by BLI vs vehicle (human MM.1S cells),response of lines with low CRBN levels [1]
Cc1ncsc1-c1ccc([C@H](C)NC(=O)[C@@H]2C[C@@H](O)CN2C(=O)[C@@H](NC(=O)COCCCOCCNC(=O)C[C@@H]2N=C(c3ccc(Cl)cc3)c3c(sc(C)c3C)-n3c(C)nnc32)C(C)(C)C)cc1 [ARV-771],"ABCB1, the gene for the MDR1 transporter, was commonly identified as the only gene with sgRNA enrichment",significantly decreased responsiveness,"limited, if any, shift",MDR1 substrates,–,–,–,–,–,–
CC(C)(C)c1cnc(CSc2cnc(NC(=O)C3CCN(CC(=O)NCCOCCOCCOCCNc4cccc5c4C(=O)N(C4CCC(=O)NC4=O)C5=O)CC3)s2)o1 (centres unmarked) [Thal-SNS-032],–,–,major shifts to the right,–,CRBN is the top gene in terms of sgRNA enrichment,–,–,–,–,–
Cc1sc2c(c1C)C(c1ccc(Cl)cc1)=N[C@@H](CC(=O)NCCCCCCCCNC(=O)COc1cccc3c1C(=O)N(C1CCC(=O)NC1=O)C3=O)c1nnc(C)n1-2 (some centres unmarked) [dBET6],"ABCB1, the gene for the MDR1 transporter, was commonly identified as the only gene with sgRNA enrichment",–,–,MDR1 substrates,CRBN is the top gene in terms of sgRNA enrichment,rapid and robust depletion,rapid and robust depletion,only minimal overall survival advantage,significantly lower tumor burden,remained responsive to dBET6
